# US12329738B2, “Urolithin A and a composition containing same for external use in inflammations of various etiologies” (WARSZAWSKI UNIWERSYTET MEDYCZNY, priority 2018, dated 2025)
# What was measured:
# [1] = following ingestion of food products rich in ellagitannins; cited from earlier work
# [2] = tested on: Wistar rats (DNCB-induced atopic dermatitis); experiment: Pruritus level (scratch reflexes) in DNCB-induced atopic dermatitis rat model; format: in vivo
# Method: Wistar rats aged 5-6 weeks (at the start of the experiment) kept under standard conditions with free access to feed and water were used for the tests. The animals were divided into 5 groups, 8 individuals in each group. To prepare 2,4-dinitrochlorobenzene (DNCB) composition inducing inflammation, DNCB was dissolved in 70% ethanol to a final concentration of 1.5% (w/v). Therapeutic composition was an ointment based on white petrolatum with 0.2% or 1.0% urolithin A added. The control ointment was white petrolatum without addition of urolithin A. The induction of chronic atopic dermatitis involved local 9-fold infiltration with 60 μl 1.5% 2,4-dinitrochlorobenzene (DNCB) on each (external and internal) surface of the right ear over 3 weeks (3 times a week). Negative control was the right ear of rats without induction inflammation. Treatment of atopic dermatitis with 0.2% or 1.0% urolithin composition and white petrolatum (control) or 1.0% hydrocortisone composition (positive control) was started eight days after sensitization—one day before the fourth application of DNCB. Ointments with appropriate for given group drug added were applied in a total volume of about 20 μl to each ear surface one day before and 6 hours after each DNCB application (for a period of 3 weeks). The negative control group consisted of rats without induced inflammation and treated with white petrolatum in a regimen analogous to the composition of urolithin A or hydrocortisone. Measurement of pruritus level (as measured by scratching reflexes) was evaluated as the total frequency of scratch reflexes during 10 minutes immediately after DNCB application on days 0, 4, 8, 12, 16, 20, 24, 28 and 32 of the experiment). Scratching was defined as a single or series of several reflexes of scratching with a paw directed at the site of DNCB application. The experimental results obtained were analyzed using the Statistica 7.1 program (StatSoft, Inc., Tulsa, OK, USA) and presented as mean values±SE. Statistical significance was set at P≤0.05. The results with established normal distribution in the D'Agostin and Pearson test were prepared using two- or three-factor analysis of variance (ANOVA). Parametric post-hoc analysis for individual time points was performed using the Bonferroni test.
# tyrosinase = molecular target: T1, tyrosinase (Mus musculus, UniProt P11344); settings: B16 melanoma cells; cited from earlier work
# T1 sequence (P11344 19-533): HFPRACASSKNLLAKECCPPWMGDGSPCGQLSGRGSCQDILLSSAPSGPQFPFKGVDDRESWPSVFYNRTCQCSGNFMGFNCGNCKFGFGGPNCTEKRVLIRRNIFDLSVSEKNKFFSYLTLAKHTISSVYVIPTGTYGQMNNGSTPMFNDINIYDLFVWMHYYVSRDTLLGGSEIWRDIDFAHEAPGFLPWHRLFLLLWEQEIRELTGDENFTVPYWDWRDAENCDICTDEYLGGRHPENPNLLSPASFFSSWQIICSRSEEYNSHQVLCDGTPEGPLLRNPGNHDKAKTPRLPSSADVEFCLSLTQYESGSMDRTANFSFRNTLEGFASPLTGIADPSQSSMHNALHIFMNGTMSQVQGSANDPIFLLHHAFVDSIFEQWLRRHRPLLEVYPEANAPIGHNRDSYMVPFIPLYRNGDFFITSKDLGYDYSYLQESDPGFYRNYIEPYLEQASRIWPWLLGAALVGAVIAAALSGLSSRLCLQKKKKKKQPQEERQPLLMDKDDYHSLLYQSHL
# [3] = tested on: neutrophils and macrophages; settings: cited from earlier work
# hyaluronidase = experiment: Hyaluronidase activity, pharmacopoeial method (USP); format: biochemical; settings: experiments by the inventors
# Description: US application US2010323985A discloses the use of a compound from the group of urolithins, urolithin B, as a component of a pharmaceutical or cosmetic preparation for topical and/or parenteral use. […] Urolithin B has been indicated as an example of one of hyaluronic acid degradation inhibitors, alone or in a mixture. With respect to the above, the inventors conducted experiments according to the pharmacopoeial method (USP), observing as a result no effect of urolithin A on hyaluronidase activity. […] Also, in the case of psoriasis, research is currently underway on effectiveness of hyaluronidase subcutaneous injections ([…] preparation; https://clinicaltrials.gov/ct2/show/NCT01987609).
# [4] = tested on: S100A8/A9 protein (calprotectin); experiment: Extracellular S100A8/A9 level, LPS-stimulated human neutrophils (ELISA); format: cell-based; settings: 40, 10 and 1 μM; LPS 10 ng/mL; 30 min; concentration dependent
# Method: In order to comparatively study the biological activity of urolithins and their derivatives, these compounds were obtained by chemical synthesis, and then their activity against release of calprotectin by stimulated neutrophils was examined. Peripheral blood was collected from healthy donors (aged 20-35) at the Regional Blood Donation and Blood Treatment Center (Regionalne Centrum Krwiodawstwa i Krwiolecznictwa) in Warsaw. The study was conducted in accordance with the principles of the Declaration of Helsinki. […] Neutrophils were isolated using a standard method (Piwowarski et al., 2014a). Neutrophils were then suspended in HBSS. 50 μL of urolithin A, urolithin B or iso-urolitin A at the appropriate concentration (to achieve final concentrations of 40, 10 and 1 μM) and 10 μL of LPS solution (final concentration of 10 ng/mL) were added to 440 μl of cell suspension (3×10^5 cells/mL). Cells were incubated at 37° C. for 30 min, then centrifuged at 4° C., 400 rcf for 10 min. The experiment was carried out on blood samples taken from 4 different donors in duplicates. The effect of urolithins on the production of S100A8/A9 was determined using the immunochemical ELISA method (R&D Systems).
# The obtained results of experiments on in vitro models were analyzed using the Statistica 13 program (StatSoft, Inc., Tulsa, OK, USA) and presented as mean values±SEM. […]
# [5] = Local application of urolithin A ointment on skin by volunteers; format: in vivo, human; settings: 1.0% urolithin A ointment in white petrolatum, 20 mg per 4 cm^2 once a day for two weeks
# Method: The therapeutic composition was an ointment prepared on the base of white petrolatum with 1.0% urolithin A added. The control ointment was white petrolatum without the addition of urolithin A. 1.0% urolithin A composition and the carrier—white petrolatum was applied on washed and dried skin by volunteers themselves, at a dose of 20 mg ointment per surface 4 cm^2 daily, once a day for two weeks.
# The following parameters were taken into account in the study: feeling of discomfort after application of the composition on the skin, ease of application, discoloration of the skin at the site of application, redness of the skin at the site of application of the composition, degree of drying of the treated area of the skin, sensation of pinching, burning, itching and other types of discomfort. Participants in the study determined their level of satisfaction/dissatisfaction on a 10-point scale, 0 being dissatisfaction and 10 being satisfaction with the pharmaceutical composition of the present invention.
compound,measurement,setting,value
O=c1oc2cc(O)ccc2c2ccc(O)cc12 [urolithin A],"Concentration in feces, tissues, blood and urine",[1],≤ 100 µM
same,"Inhibition of scratching reflexes, comparison of urolithin doses with each other","[2]; 0.2% vs 1%, p<0.05",more effective at a concentration of 1%
same,"Reduction in scratching rate, urolithin vs. hydrocortisone","[2]; overall effect, p<0.05",stronger
same,Scratching rate (frequency of scratch reflexes),"[2]; topical ointment, urolithin A 0.2 and 1.0% (p<0.001), hydrocortisone 1% (p<0.01)",reduction in scratching rate
same,Inhibition of scratching reflexes compared to hydrocortisone 1%,"[2]; urolithin A 0.2% ointment, p=0.39",absence of significantly greater efficiency
same,Inhibition of scratching reflexes compared to hydrocortisone 1%,"[2]; urolithin A 1% ointment, p<0.05",significantly greater inhibition of scratching reflexes compared to hydrocortisone
same,Tyrosinase activity (depigmentation),tyrosinase,suppressing tyrosinase activity
same,Cytotoxic or antiproliferative activity,[3],there was not observed either cytotoxic or antiproliferative activity
same,Effect on hyaluronidase activity,hyaluronidase,no effect
same,Extracellular level of S100A8/A9 protein (calprotectin),[4],significant decrease
same,Adverse effects after skin application,[5],did not cause any adverse effects
